# Test results taken from the supplement of paper PMC10307832.
# Columns and labels:
# Test in all cases: relative viability (nuclei count vs DMSO), 5 days (fraction); higher = more cells survive
# LOU-NH91 = system: LOU-NH91
# Procedure, shortened: (§1)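 Lung cancer cell lines were seeded in 1536-well plates and dosed by pin tool the next day, with either a single drug or a fixed anchor-drug dose combined with five library-drug doses (not always all listed) spaced in √10 steps. Five days later, one step fixed the cells and stained their nuclei (final 0.05% Triton X-100, 1% formaldehyde, 1 ug/ml Hoechst), and nuclei were counted on 4× images. Relative viability is the nuclei count in treated wells divided by the count in vehicle wells, and each value is the median of duplicate plates.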
# NCI-H1650 = system: NCI-H1650
# Procedure, shortened: as §1
# COR-L 105 = system: COR-L 105
# Procedure, shortened: as §1
# NCI-H441 = system: NCI-H441
# Procedure, shortened: as §1
# PC-14 = system: PC-14
# Procedure, shortened: as §1
# HARA = system: HARA
# Procedure, shortened: as §1
# NCI-H3122 = system: NCI-H3122
# Procedure, shortened: as §1
# BEN = system: BEN
# Procedure, shortened: as §1
# CAL-12T = system: CAL-12T
# Procedure, shortened: as §1
# EKVX = system: EKVX
# Procedure, shortened: as §1
# NCI-H2170 = system: NCI-H2170
# Procedure, shortened: as §1
# NCI-H727 = system: NCI-H727
# Procedure, shortened: as §1
# NCI-H2009 = system: NCI-H2009
# Procedure, shortened: as §1
# ABC-1 = system: ABC-1
# Procedure, shortened: as §1
# NCI-H661 = system: NCI-H661
# Procedure, shortened: as §1
# NCI-H1437 = system: NCI-H1437
# Procedure, shortened: as §1
# NCI-H460 = system: NCI-H460
# Procedure, shortened: as §1
# LK-2 = system: LK-2
# Procedure, shortened: as §1
# NCI-H1666 = system: NCI-H1666
# Procedure, shortened: as §1
# SW 900 = system: SW 900
# Procedure, shortened: as §1
# HCC-366 = system: HCC-366
# Procedure, shortened: as §1
# 201T = system: 201T
# Procedure, shortened: as §1
structure (smiles),measurement,setting,value
CC(=O)O[C@@]12CO[C@@H]1C[C@H](O)[C@@]1(C)C(=O)[C@H](O)C3=C(C)[C@@H](OC(=O)[C@H](O)[C@@H](NC(=O)OC(C)(C)C)c4ccccc4)C[C@@](O)([C@@H](OC(=O)c4ccccc4)[C@H]21)C3(C)C [Docetaxel] + O=C(CCCCCCC(=O)Nc1ccccc1)NO [Vorinostat] (partner 1 µM),relative viability,LOU-NH91; first compound 0.0002 µM,0.873
same,relative viability,LOU-NH91; first compound 0.000632 µM,0.628
same,relative viability,LOU-NH91; first compound 0.002 µM,0.436
same,relative viability,LOU-NH91; first compound 0.006325 µM,0.397
same,relative viability,LOU-NH91; first compound 0.02 µM,0.347
same,relative viability,NCI-H1650; first compound 0.0002 µM,0.54
same,relative viability,NCI-H1650; first compound 0.000632 µM,0.499
same,relative viability,NCI-H1650; first compound 0.002 µM,0.226
same,relative viability,NCI-H1650; first compound 0.006325 µM,0.196
same,relative viability,NCI-H1650; first compound 0.02 µM,0.162
same,relative viability,COR-L 105; first compound 0.0002 µM,0.889
same,relative viability,COR-L 105; first compound 0.000632 µM,0.747
same,relative viability,COR-L 105; first compound 0.002 µM,0.392
same,relative viability,COR-L 105; first compound 0.006325 µM,0.413
same,relative viability,COR-L 105; first compound 0.02 µM,0.368
same,relative viability,NCI-H441; first compound 0.0002 µM,0.713
same,relative viability,NCI-H441; first compound 0.000632 µM,0.53
same,relative viability,NCI-H441; first compound 0.002 µM,0.223
same,relative viability,NCI-H441; first compound 0.006325 µM,0.219
same,relative viability,NCI-H441; first compound 0.02 µM,0.165
same,relative viability,PC-14; first compound 0.0002 µM,0.725
same,relative viability,PC-14; first compound 0.000632 µM,0.245
same,relative viability,PC-14; first compound 0.002 µM,0.079
same,relative viability,PC-14; first compound 0.006325 µM,0.0579
same,relative viability,PC-14; first compound 0.02 µM,0.0282
same,relative viability,HARA; first compound 0.0002 µM,0.5
same,relative viability,HARA; first compound 0.000632 µM,0.219
same,relative viability,HARA; first compound 0.002 µM,0.148
same,relative viability,HARA; first compound 0.006325 µM,0.215
same,relative viability,HARA; first compound 0.02 µM,0.0839
same,relative viability,NCI-H3122; first compound 0.0002 µM,0.909
same,relative viability,NCI-H3122; first compound 0.000632 µM,0.95
same,relative viability,NCI-H3122; first compound 0.002 µM,0.487
same,relative viability,NCI-H3122; first compound 0.006325 µM,0.22
same,relative viability,NCI-H3122; first compound 0.02 µM,0.126
same,relative viability,BEN; first compound 0.0002 µM,0.526
same,relative viability,BEN; first compound 0.000632 µM,0.526
same,relative viability,BEN; first compound 0.002 µM,0.337
same,relative viability,BEN; first compound 0.006325 µM,0.373
same,relative viability,BEN; first compound 0.02 µM,0.299
same,relative viability,CAL-12T; first compound 0.0002 µM,0.411
same,relative viability,CAL-12T; first compound 0.000632 µM,0.35
same,relative viability,CAL-12T; first compound 0.002 µM,0.255
same,relative viability,CAL-12T; first compound 0.006325 µM,0.142
same,relative viability,CAL-12T; first compound 0.02 µM,0.12
same,relative viability,EKVX; first compound 0.0002 µM,0.638
same,relative viability,EKVX; first compound 0.000632 µM,0.6
same,relative viability,EKVX; first compound 0.002 µM,0.428
same,relative viability,EKVX; first compound 0.006325 µM,0.29
same,relative viability,EKVX; first compound 0.02 µM,0.229
same,relative viability,NCI-H2170; first compound 0.0002 µM,0.787
same,relative viability,NCI-H2170; first compound 0.000632 µM,0.551
same,relative viability,NCI-H2170; first compound 0.002 µM,0.388
same,relative viability,NCI-H2170; first compound 0.006325 µM,0.162
same,relative viability,NCI-H2170; first compound 0.02 µM,0.136
same,relative viability,NCI-H727; first compound 0.0002 µM,1.08
same,relative viability,NCI-H727; first compound 0.000632 µM,1.13
same,relative viability,NCI-H727; first compound 0.002 µM,1.2
same,relative viability,NCI-H727; first compound 0.006325 µM,0.748
same,relative viability,NCI-H727; first compound 0.02 µM,0.67
same,relative viability,NCI-H2009; first compound 0.0002 µM,0.714
same,relative viability,NCI-H2009; first compound 0.000632 µM,0.715
same,relative viability,NCI-H2009; first compound 0.002 µM,0.707
same,relative viability,NCI-H2009; first compound 0.006325 µM,0.301
same,relative viability,NCI-H2009; first compound 0.02 µM,0.176
same,relative viability,ABC-1; first compound 0.0002 µM,1.13
same,relative viability,ABC-1; first compound 0.000632 µM,0.884
same,relative viability,ABC-1; first compound 0.002 µM,0.44
same,relative viability,ABC-1; first compound 0.006325 µM,0.435
same,relative viability,ABC-1; first compound 0.02 µM,0.338
same,relative viability,NCI-H661; first compound 0.0002 µM,0.777
same,relative viability,NCI-H661; first compound 0.000632 µM,0.856
same,relative viability,NCI-H661; first compound 0.002 µM,0.728
same,relative viability,NCI-H661; first compound 0.006325 µM,0.493
same,relative viability,NCI-H661; first compound 0.02 µM,0.373
same,relative viability,NCI-H1437; first compound 0.0002 µM,0.838
same,relative viability,NCI-H1437; first compound 0.000632 µM,0.522
same,relative viability,NCI-H1437; first compound 0.002 µM,0.553
same,relative viability,NCI-H1437; first compound 0.006325 µM,0.275
same,relative viability,NCI-H1437; first compound 0.02 µM,0.185
same,relative viability,NCI-H460; first compound 0.0002 µM,0.637
same,relative viability,NCI-H460; first compound 0.000632 µM,0.349
same,relative viability,NCI-H460; first compound 0.002 µM,0.0613
same,relative viability,NCI-H460; first compound 0.006325 µM,0.0388
same,relative viability,NCI-H460; first compound 0.02 µM,0.0166
same,relative viability,LK-2; first compound 0.0002 µM,0.313
same,relative viability,LK-2; first compound 0.000632 µM,0.217
same,relative viability,LK-2; first compound 0.002 µM,0.15
same,relative viability,LK-2; first compound 0.006325 µM,0.183
same,relative viability,LK-2; first compound 0.02 µM,0.152
same,relative viability,NCI-H1666; first compound 0.0002 µM,0.893
same,relative viability,NCI-H1666; first compound 0.000632 µM,0.992
same,relative viability,NCI-H1666; first compound 0.002 µM,0.681
same,relative viability,NCI-H1666; first compound 0.006325 µM,0.706
same,relative viability,NCI-H1666; first compound 0.02 µM,0.47
same,relative viability,SW 900; first compound 0.0002 µM,0.523
same,relative viability,SW 900; first compound 0.000632 µM,0.284
same,relative viability,SW 900; first compound 0.002 µM,0.277
same,relative viability,SW 900; first compound 0.006325 µM,0.203
same,relative viability,SW 900; first compound 0.02 µM,0.235
same,relative viability,HCC-366; first compound 0.0002 µM,0.299
same,relative viability,HCC-366; first compound 0.000632 µM,0.0824
same,relative viability,HCC-366; first compound 0.002 µM,0.0503
same,relative viability,HCC-366; first compound 0.006325 µM,0.0366
same,relative viability,HCC-366; first compound 0.02 µM,0.0211
same,relative viability,201T; first compound 0.0002 µM,0.885
same,relative viability,201T; first compound 0.000632 µM,0.932
same,relative viability,201T; first compound 0.002 µM,0.516
same,relative viability,201T; first compound 0.006325 µM,0.478
same,relative viability,201T; first compound 0.02 µM,0.291
